Source: publication PMC8308925 (Pharmaceuticals, 2021)
In brackets after ≈: the same amount, converted by molar mass. Read-outs that look alike come from different tables or passages of the source.

Columns and labels:
NTCP = molecular target: T1, NTCP (Homo sapiens, UniProt Q14973); assay: Uptake of MT921 and probe substrate in HEK 293-NTCP cells (substrate specificity, kinetics)
T1 sequence (Q14973 1-349): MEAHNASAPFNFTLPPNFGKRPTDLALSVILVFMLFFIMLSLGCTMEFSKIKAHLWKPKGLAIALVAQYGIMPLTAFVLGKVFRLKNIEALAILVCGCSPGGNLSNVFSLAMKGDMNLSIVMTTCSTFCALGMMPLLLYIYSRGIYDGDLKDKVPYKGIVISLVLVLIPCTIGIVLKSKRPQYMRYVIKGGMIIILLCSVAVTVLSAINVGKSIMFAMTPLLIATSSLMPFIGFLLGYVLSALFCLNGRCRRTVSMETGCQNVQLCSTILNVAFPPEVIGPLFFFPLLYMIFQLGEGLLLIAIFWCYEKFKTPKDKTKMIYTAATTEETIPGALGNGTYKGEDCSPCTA
Description: (§1) For the experiments, 0.8 × 10^5 cells per well were seeded in poly-D-lysine coated 24-well plates, except for HEK293-ASBT cells, where 1 × 10^5 cells per well were seeded in poly-D-lysine coated 24-well plates. After incubation for 48 h, the medium was removed and the cells were washed with DPBS and preincubated for 10 min in DPBS at 37 °C.
(§2) Cells were disintegrated in 150 µL of 70% acetonitrile containing internal standard (IS; 200 nM of chenodeoxycholic acid). The cells were sonicated for 3 s and centrifuged at 13,000 rpm for 10 min. An aliquot (5 µL) from the supernatant (100 µL) was injected into LC-MS/MS system.
(§3) The sample preparation method is as stated above.
(§4) Vmax represents the maximum velocity at saturating substrate concentration, [S] represents the substrate concentration, Km represents the substrate concentration at half Vmax, and CLdiffusion represents the passive diffusion clearance.

OATP1B1 = molecular target: T2, OATP1B1 (Homo sapiens, UniProt Q9Y6L6); assay: in vitro
T2 sequence (Q9Y6L6 1-691): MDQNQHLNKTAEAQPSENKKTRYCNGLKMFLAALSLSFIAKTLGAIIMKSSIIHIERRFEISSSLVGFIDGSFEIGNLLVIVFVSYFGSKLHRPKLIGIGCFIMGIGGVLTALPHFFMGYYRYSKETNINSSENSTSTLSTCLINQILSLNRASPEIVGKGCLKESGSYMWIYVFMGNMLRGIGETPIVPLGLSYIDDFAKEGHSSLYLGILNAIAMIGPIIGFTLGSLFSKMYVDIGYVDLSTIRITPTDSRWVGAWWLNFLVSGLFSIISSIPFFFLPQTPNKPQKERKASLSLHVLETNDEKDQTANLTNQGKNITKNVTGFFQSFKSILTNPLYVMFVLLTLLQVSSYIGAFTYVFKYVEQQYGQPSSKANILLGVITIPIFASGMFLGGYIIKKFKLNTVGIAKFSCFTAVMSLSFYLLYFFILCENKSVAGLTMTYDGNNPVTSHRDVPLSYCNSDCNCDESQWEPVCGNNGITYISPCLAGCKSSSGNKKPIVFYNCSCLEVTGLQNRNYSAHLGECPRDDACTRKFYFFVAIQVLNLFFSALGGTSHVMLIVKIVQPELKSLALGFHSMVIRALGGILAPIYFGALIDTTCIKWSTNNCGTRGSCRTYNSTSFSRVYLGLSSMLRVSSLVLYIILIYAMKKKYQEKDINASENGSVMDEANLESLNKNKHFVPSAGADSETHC

OATP1B3 [1] = molecular target: T3, OATP1B3 (Homo sapiens, UniProt Q9NPD5)
T3 sequence (Q9NPD5 1-702): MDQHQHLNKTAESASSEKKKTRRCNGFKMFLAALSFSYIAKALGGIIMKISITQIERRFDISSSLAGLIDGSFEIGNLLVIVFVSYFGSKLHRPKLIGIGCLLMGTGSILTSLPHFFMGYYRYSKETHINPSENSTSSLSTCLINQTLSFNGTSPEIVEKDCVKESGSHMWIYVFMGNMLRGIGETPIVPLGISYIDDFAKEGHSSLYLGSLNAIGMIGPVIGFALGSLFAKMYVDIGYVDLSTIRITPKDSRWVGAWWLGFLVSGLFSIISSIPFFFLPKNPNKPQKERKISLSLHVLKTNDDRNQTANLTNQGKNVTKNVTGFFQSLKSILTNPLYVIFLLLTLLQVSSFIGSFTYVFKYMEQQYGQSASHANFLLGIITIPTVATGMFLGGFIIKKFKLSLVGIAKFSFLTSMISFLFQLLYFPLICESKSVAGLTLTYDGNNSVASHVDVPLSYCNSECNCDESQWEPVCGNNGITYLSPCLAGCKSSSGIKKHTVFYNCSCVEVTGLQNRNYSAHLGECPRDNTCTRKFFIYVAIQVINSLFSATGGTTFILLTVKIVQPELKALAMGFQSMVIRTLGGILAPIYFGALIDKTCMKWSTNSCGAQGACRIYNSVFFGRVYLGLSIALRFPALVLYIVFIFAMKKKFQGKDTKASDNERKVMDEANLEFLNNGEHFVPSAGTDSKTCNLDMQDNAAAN

ASBT [2] = molecular target: T4, ASBT (Homo sapiens, UniProt Q12908); assay: Uptake of MT921 and probe substrate in HEK 293-ASBT cells (substrate specificity, kinetics); type: in vitro ADME; conditions: ASBT-mediated MT921 uptake, 5–100 µM
T4 sequence (Q12908 1-348): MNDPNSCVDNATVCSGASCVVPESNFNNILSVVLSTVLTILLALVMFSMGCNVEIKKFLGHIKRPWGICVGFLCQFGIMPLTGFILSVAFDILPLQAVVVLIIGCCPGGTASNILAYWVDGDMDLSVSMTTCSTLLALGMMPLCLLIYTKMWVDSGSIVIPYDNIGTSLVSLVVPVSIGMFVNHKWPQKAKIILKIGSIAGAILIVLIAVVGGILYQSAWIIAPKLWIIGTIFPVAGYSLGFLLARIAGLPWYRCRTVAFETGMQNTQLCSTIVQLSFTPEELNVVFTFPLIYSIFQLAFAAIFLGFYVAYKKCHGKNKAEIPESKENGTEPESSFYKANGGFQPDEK
Description: as §1, §2, §3, §4

OATP1B3 [3] = molecular target: T3, OATP1B3; assay: in vitro
Description: as §1, §2, §3, §4

[4] = amlodipine PBPK model parameter, cited from earlier work
ASBT [5] = molecular target: T4, ASBT; conditions: inhibition of ASBT, implemented in DDI model; ref [61]; cited from earlier work
[6] = cited from earlier work
[7] = substrate: C[C@H](CCC(=O)O)[C@H]1CC[C@H]2[C@@H]3[C@H](O)C[C@@H]4C[C@H](O)CC[C@]4(C)[C@H]3C[C@H](O)[C@]12C; assay: cells, lysate or membranes named; conditions: other: OAT3-mediated MT921 uptake, 5–300 µM, modified Michaelis–Menten fit; 37.0 °C
[8] = Literature, ref [33] (supplement list)

C[C@H](CCC(=O)NCCS(=O)(=O)O)[C@H]1CC[C@H]2[C@@H]3[C@H](O)C[C@@H]4C[C@H](O)CC[C@]4(C)[C@H]3C[C@H](O)[C@]12C [[^3H]taurocholate]
Increase of probe substrate uptake rate in transporter-expressing cells compared to mock cells (NTCP; 0.8 µM probe substrate, HEK 293-NTCP): 102.1 fold

C[C@H](CCC(=O)O)[C@H]1CC[C@H]2[C@@H]3[C@H](O)C[C@@H]4C[C@H](O)CC[C@]4(C)[C@H]3C[C@H](O)[C@]12C [MT921, cholic acid]
IC50 at 5 min (OATP1B1): 63.2 µM
IC50 (OATP1B3 [1]): 38.3 µM
Ki (OATP1B3 [1]): 38.2 µM
Vmax (ASBT [2]): 302.31 pmol/mg protein/min
Vmax (NTCP; NTCP-mediated MT921 uptake, 5–100 µM): 409.28 pmol/mg protein/min
CLdiffusion (NTCP; passive diffusion clearance, HEK 293-NTCP): 1.27 µL/mg protein/min
Km (OATP1B3 [3]; OATP1B3-mediated MT921 uptake, 5–100 µM, modified Michaelis–Menten fit): 27.4 µM
intrinsic clearance (Vmax/Km) (OATP1B3 [3]; human): 3.46 µL/mg protein/min
Km at 10 min (OATP1B3 [3]; human, Km, OATP1B3-mediated MT921 uptake, 5–100 µM, modified Michaelis–Menten fit): 27.4 µM

CCOC(=O)C1=C(COCCN)NC(C)=C(C(=O)OC)C1c1ccccc1Cl (stereo not drawn) [amlodipine]
Fraction unbound [4, 8]: 0.07
Log P [4, 8]: 3.43 Log units
Solubility ([4]; extracted from published literature, no reference given): 75.3 µg/mL (≈ 184 µM)
Ki (ASBT [5]): 42.1 µM
Cmax Obs ([6]; 2.5 mg po (tab), sd, ref [28] (supplement list)): 1.94 ng/mL
Cmax Obs ([6]; 5 mg po (tab), sd, first line of the study, ref [27] (supplement list)): 3.56 ng/mL
Cmax Obs ([6]; 5 mg po (tab), sd, ref [17] (supplement list)): 2.36 ng/mL
Cmax Obs ([6]; 5 mg po (tab), sd, ref [20] (supplement list)): 3.18 ng/mL
Cmax Obs ([6]; 5 mg po (tab), sd, ref [23] (supplement list)): 2.44 ng/mL
Cmax Obs ([6]; 5 mg po (tab), sd, ref [25] (supplement list)): 2.54 ng/mL
Cmax Obs ([6]; 5 mg po (tab), sd, ref [30] (supplement list)): 3.07 ng/mL
Cmax Obs ([6]; 5 mg po (tab), sd, second line of the study, ref [27] (supplement list)): 3.64 ng/mL
Cmax Obs ([6]; 10 mg po (tab), md, ref [16] (supplement list)): 18.77 ng/mL
Cmax Obs ([6]; 10 mg po (tab), md, ref [21] (supplement list)): 18.73 ng/mL
Cmax Obs ([6]; 10 mg po (tab), sd, first line of the study, ref [22] (supplement list)): 5.32 ng/mL
Cmax Obs ([6]; 10 mg po (tab), sd, ref [17] (supplement list)): 5.13 ng/mL
Cmax Obs ([6]; 10 mg po (tab), sd, ref [18] (supplement list)): 5.51 ng/mL
Cmax Obs ([6]; 10 mg po (tab), sd, ref [19] (supplement list)): 5.40 ng/mL
Cmax Obs ([6]; 10 mg po (tab), sd, ref [20] (supplement list)): 6.85 ng/mL
Cmax Obs ([6]; 10 mg po (tab), sd, ref [24] (supplement list)): 8.13 ng/mL
Cmax Obs ([6]; 10 mg po (tab), sd, ref [26] (supplement list)): 6.41 ng/mL
Cmax Obs ([6]; 10 mg po (tab), sd, ref [29] (supplement list)): 4.92 ng/mL
Cmax Obs ([6]; 10 mg po (tab), sd, second line of the study, ref [22] (supplement list)): 4.37 ng/mL

C[C@]12CC[C@@H]3c4ccc(O)cc4CC[C@H]3[C@@H]1CC[C@@H]2O[C@@H]1O[C@H](C(=O)O)[C@@H](O)[C@H](O)[C@H]1O
Increase of probe substrate uptake rate in transporter-expressing cells compared to mock cells (OATP1B3 [3]; 0.06 µM probe substrate, HEK 293-OATP1B3): 9.6 fold

B1: OAT3 (Homo sapiens) (protein)
chain: MTFSEILDRVGSMGHFQFLHVAILGLPILNMANHNLLQIFTAATPVHHCRPPHNASTGPWVLPMGPNGKPERCLRFVHPPNASLPNDTQRAMEPCLDGWVYNSTKDSIVTEWDLVCNSNKLKEMAQSIFMAGILIGGLVLGDLSDRFGRRPILTCSYLLLAASGSGAAFSPTFPIYMVFRFLCGFGISGITLSTVILNVEWVPTRMRAIMSTALGYCYTFGQFILPGLAYAIPQWRWLQLTVSIPFFVFFLSSWWTPESIRWLVLSGKSSKALKILRRVAVFNGKKEEGERLSLEELKLNLQKEISLAKAKYTASDLFRIPMLRRMTFCLSLAWFATGFAYYSLAMGVEEFGVNLYILQIIFGGVDVPAKFITILSLSYLGRHTTQAAALLLAGGAILALTFVPLDLQTVRTVLAVFGKGCLSSSFSCLFLYTSELYPTVIRQTGMGVSNLWTRVGSMVSPLVKITGEVQPFIPNIIYGITALLGGSAALFLPETLNQPLPETIEDLENWSLRAKKPKQEPEVEKASQRIPLQPHGPGLGSS
Km [7]: 133.33 µM
Vmax/Km [7]: 1.28 µL/mg protein/min
